Test results from patent publication US10072005B2, “4-azaindole derivatives” (EISAI R&D MANAGEMENT CO., LTD., priority 2013, dated 2018).

What was measured:
mAChR M2 = mAChR M2 (Homo sapiens (Human), UniProt P08172); test: In vitro cellular calcium flux assay, PAM, NAM and agonist modes, mAChR M2; type: cell-based
Protocol: (§1) Baby hamster kidney cells stably expressing human or rat mAChR M1 to M5 were utilised for primary and selectivity profiling activities. mAChR M2 and M4 cell lines also stably expressed the chimeric Gαqi5 G-protein.
(§2) Human mAChR M1, M3, M5 and rat M1 cells were grown in low glucose Dulbecco's Modified Eagle's Medium (DMEM) medium plus heat inactivated 10% fetal bovine serum (HI FBS) and 500 μg/ml hygromycin B^1. Human mAChR M2 and M4 cells were maintained as above with^2 the addition of 500 μg/ml G418 to the media. Cells were maintained in culture at 37° C./5% CO2 and passaged twice weekly by treatment with 0.05% Trypsin/EDTA detachment solution, centrifugation (200 g, 5 min) and re-suspension in fresh media. Following cell expansion, cells were cryopreserved at −80° C. by treatment with 0.05% Trypsin/EDTA detachment solution, centrifugation (200 g, 5 min) and re-suspension of the pellet in freezing media (90% HI FBS/10% DMSO^3) at 15E6 cells/ml^4.
(§3) Prior to assaying, cells were prepared by thawing at 37° C. in a water bath, centrifugation (200 g, 5 min) and re-suspension of the pellet in fresh media. 15000 cells per well were seeded in black, clear bottomed 384-well Greiner Bio-One plates in plating medium (DMEM/10% HI FBS) and incubated overnight at 37 C/5% CO2.
(§4) On the day of the assay, media was removed from each well and replaced with 50 μl^5 assay buffer (HBSS with 20 mM HEPES and 2.5 mM Probenecid) containing the calcium indicator, Calcium 4 (Molecular Devices). Cells were then incubated at 37° C./5% CO2 for 30 min and at room temperature.
(§5) Compound preparation was carried out by generation of 11-point, 1 in 3 serial dilution concentration response curves in 100% DMSO. Compound was then diluted 1 in 65^6 with assay buffer (HBSS with 20 mM HEPES and 2.5 mM Probenecid) prior to the addition of 10 ul^7 to the cells using a Tetra fluorometric imaging plate reader (Molecular Devices)^8. Compound driven increases in intracellular calcium flux was measured as an increase in fluorescence (494Ex, 516Em)^9.
(§6) Positive allosteric modulator pEC50 values and antagonist pIC50 values for each compound were then determined. […] The points of modification and the alternate reagents, concentrations or equipment employed in these examples were: ^1200 μg/ml hygromycin B; ^2G418 not added; ^3CELLBANKER 1; ^410E6; ^5 40 μl; ^6 1 in 99; ^7 20 μl; ^8FDSS6000 (Hamamatsu Photonics); ^9(480Ex, 540Em); ^10Spotfire (TIBCO).
(§7) Certain compounds were tested in PAM, NAM and agonist modes against mAChR M2, M3, M4 and M5.

mAChR M3 = mAChR M3 (Homo sapiens (Human), UniProt P20309); test: In vitro cellular calcium flux assay, PAM, NAM and agonist modes, mAChR M3; type: cell-based
Protocol: as §1, §2, §3, §4, §5, §6, §7

mAChR M4 = mAChR M4 (Homo sapiens (Human), UniProt P08173); test: In vitro cellular calcium flux assay, PAM, NAM and agonist modes, mAChR M4; type: cell-based
Protocol: as §1, §2, §3, §4, §5, §6, §7

Male Lister Hooded rats = test: Novel Object Recognition test; type: in vivo; details: rat, 24 h delay
Protocol: The Novel Object Recognition test (NOR) is based on the greater spontaneous exploration of a novel object, compared with a familiar object, observed in rodents (Behav. Brain Res., 1988, 31(1), 47-59). […] Therefore, it is considered to be analogous to recognition memory tests used in human clinical testing. Male Lister Hooded rats were assessed for object recognition in a test apparatus comprising of a perspex test arena housed within a sound attenuating chamber. Video images of behaviour were captured by digital camera and recorded to a computer. Rats were habituated to the test arena on four occasions prior to testing. Habituation sessions replicated the test day sequence exactly with the exception of object presentation. On test days, each rat was placed into the test arena and 3 minutes later the rat was presented with two identical objects (plastic shapes). The time spent actively exploring the objects during a 3-minute test period (T1) was recorded. Following T1 rats were returned to home cages. After 24 hours each rat was again placed in the test arena and 3 minutes later was presented with one of the now familiar objects and a novel object, and again the time spent actively exploring the objects during a 3-minute test period (T2) was recorded. The presentation order and position of objects (left/right) was randomised within groups to prevent bias from order or place preference. Objects were cleaned with 70% ethanol solution between trials to remove any olfactory/taste cues. Compounds were administered by oral gavage at an appropriate pre-treatment time prior to T1 and T2 (n=12) at dosage ranges between 0.03 and 3 mg/kg. In some experiments the 5-HT6 receptor antagonist N-(3,5-dichloro-2-methoxyphenyl)-4-methoxy-3-(piperazin-1-yl)benzenesulfonamide (CAS 402713-80-8) (10 mg/kg p.o.; 4 h pre-treatment time) was included as a positive control. Vehicle controls (1% methylcellulose in water) were included for comparison in each study. Results are expressed as the d2 index (difference in time spent exploring novel and familiar objects/total object exploration in T2).

mAChR M1 = mAChR M1 (Homo sapiens, UniProt P11229); test: In vitro cellular calcium flux assay, positive allosteric modulation of mAChR M1; type: cell-based; details: BHK cells expressing mAChR M1; EC20 carbachol; Examples 76-80 and 82-89 slightly modified procedure
In short: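 Baby hamster kidney cells stably expressing human mAChR M1, loaded with Calcium 4 dye in HBSS/20 mM HEPES/2.5 mM probenecid for 30 min at 37 °C. An 11-point 1-in-3 compound dilution series was added and calcium rise read as fluorescence; positive allosteric modulator pEC50 and antagonist pIC50 derived.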

mAChR M5 = mAChR M5 (Homo sapiens (Human), UniProt P08912); test: In vitro cellular calcium flux assay, PAM, NAM and agonist modes, mAChR M5; type: cell-based
Protocol: as §1, §2, §3, §4, §5, §6, §7

Sequence of mAChR M1 (P11229 whole entry, looked up): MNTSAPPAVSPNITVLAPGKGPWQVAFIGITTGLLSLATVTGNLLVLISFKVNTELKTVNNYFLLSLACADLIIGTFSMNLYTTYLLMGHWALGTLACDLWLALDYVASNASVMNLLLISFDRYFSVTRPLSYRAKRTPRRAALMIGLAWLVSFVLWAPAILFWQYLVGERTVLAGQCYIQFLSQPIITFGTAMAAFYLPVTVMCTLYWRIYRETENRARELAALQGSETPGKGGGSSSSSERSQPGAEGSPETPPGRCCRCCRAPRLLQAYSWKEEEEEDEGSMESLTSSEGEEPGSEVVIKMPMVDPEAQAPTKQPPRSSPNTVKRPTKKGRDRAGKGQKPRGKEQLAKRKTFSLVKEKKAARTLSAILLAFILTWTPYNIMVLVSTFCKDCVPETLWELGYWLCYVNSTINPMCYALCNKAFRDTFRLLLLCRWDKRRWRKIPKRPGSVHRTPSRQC
Sequence of mAChR M5 (P08912 whole entry): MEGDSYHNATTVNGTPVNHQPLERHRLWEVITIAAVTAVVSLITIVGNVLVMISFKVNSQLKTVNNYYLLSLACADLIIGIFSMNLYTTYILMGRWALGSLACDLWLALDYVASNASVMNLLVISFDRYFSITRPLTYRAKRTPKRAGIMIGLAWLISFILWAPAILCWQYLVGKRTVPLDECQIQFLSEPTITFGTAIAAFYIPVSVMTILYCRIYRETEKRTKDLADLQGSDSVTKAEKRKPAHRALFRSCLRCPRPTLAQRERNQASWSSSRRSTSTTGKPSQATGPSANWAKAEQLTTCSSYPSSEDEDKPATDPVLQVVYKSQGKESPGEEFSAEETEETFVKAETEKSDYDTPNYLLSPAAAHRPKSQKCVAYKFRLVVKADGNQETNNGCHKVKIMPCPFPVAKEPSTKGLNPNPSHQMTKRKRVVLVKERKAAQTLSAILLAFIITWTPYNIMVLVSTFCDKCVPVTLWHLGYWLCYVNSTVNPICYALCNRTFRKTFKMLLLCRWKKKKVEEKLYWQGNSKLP
Sequence of mAChR M4 (P08173 whole entry): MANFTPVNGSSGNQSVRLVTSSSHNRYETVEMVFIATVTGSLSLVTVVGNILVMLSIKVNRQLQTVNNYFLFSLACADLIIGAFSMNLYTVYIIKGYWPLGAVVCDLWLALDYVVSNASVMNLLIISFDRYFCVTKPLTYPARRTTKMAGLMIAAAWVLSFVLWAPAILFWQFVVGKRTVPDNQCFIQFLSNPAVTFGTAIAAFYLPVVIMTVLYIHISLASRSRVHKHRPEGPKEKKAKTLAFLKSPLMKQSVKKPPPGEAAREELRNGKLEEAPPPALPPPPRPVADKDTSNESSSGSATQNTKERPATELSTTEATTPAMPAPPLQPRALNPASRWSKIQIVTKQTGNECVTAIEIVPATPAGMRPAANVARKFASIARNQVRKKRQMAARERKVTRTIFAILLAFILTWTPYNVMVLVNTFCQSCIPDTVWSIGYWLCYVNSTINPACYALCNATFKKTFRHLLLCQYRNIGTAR
Sequence of mAChR M3 (P20309 whole entry, looked up): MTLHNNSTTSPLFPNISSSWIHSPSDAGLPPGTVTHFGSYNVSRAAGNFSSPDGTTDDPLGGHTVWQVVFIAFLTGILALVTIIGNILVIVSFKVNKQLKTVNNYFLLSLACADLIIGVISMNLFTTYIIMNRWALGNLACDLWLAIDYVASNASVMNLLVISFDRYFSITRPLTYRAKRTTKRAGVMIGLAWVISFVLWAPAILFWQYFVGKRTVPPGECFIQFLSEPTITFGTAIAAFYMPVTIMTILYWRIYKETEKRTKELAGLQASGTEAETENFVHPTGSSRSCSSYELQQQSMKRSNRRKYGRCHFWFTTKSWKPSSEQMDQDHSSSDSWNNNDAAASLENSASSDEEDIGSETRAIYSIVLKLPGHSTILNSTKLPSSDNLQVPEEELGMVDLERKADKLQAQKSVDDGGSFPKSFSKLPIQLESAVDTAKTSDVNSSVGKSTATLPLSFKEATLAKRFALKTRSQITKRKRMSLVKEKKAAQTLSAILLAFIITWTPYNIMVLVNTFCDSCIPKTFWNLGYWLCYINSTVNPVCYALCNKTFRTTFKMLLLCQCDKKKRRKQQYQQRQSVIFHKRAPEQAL
Sequence of mAChR M2 (P08172 whole entry): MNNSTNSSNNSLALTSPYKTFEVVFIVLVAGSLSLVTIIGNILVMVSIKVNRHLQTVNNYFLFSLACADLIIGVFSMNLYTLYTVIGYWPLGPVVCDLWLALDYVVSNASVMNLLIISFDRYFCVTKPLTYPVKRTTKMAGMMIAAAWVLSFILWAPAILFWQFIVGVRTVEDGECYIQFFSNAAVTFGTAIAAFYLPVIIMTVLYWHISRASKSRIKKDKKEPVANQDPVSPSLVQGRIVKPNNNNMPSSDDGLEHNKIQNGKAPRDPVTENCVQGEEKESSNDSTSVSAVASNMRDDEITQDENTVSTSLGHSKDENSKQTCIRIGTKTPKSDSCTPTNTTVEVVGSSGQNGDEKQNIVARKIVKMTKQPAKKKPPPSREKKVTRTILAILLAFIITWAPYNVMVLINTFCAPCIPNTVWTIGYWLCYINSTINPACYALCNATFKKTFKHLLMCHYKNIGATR

SMILES | EC50 (mAChR M2) [µM] | EC50 (mAChR M3) [µM] | EC50 (mAChR M4) [µM] | d2 index [mean ± SEM] (Male Lister Hooded rats; 0.1 mg/kg p.o.) | d2 index [mean ± SEM] (Male Lister Hooded rats; 0.3 mg/kg p.o.) | d2 index [mean ± SEM] (Male Lister Hooded rats; 1 mg/kg p.o.) | pEC50 for positive allosteric modulation (mAChR M1) | EC50 (mAChR M5) [µM] | d2 index [mean ± SEM] (Male Lister Hooded rats; 3 mg/kg p.o.) | d2 index [mean ± SEM] (Male Lister Hooded rats; 0.03 mg/kg p.o.)
O=C(NC1CCC(F)(F)C[C@@H]1O)c1cn(Cc2ccc(F)cc2)c2cccnc12 (single isomer, unassigned) [Example 34, N-(trans-4,4-Difluoro-2-hydroxycyclohexyl)-1-(4-fluorobenzyl)-1H-pyrrolo[3,2-b]pyridine-3-carboxamide] | > 10 | > 10 | > 10 | [0.08 ± 0.08] | [0.24 ± 0.05]* | [0.23 ± 0.06]* | 6.9 | > 10 |  | 
Cc1cc(Cn2cc(C(=O)N[C@H]3CCCC[C@@H]3O)c3ncccc32)ccc1F [Example 6, 1-(4-Fluoro-3-methylbenzyl)-N-((1S,2S)-2-hydroxycyclohexyl)-1H-pyrrolo[3,2-b]pyridine-3-carboxamide] | > 10 | > 10 | > 10 |  | [0.11 ± 0.09] | [0.27 ± 0.08]* | 6.7 | > 10 | [0.36 ± 0.09]** | 
O=C(N[C@H]1CCCC[C@@H]1O)c1cn(Cc2cccc(F)c2F)c2cccnc12 [Example 8, 1-(2,3-Difluorobenzyl)-N-((1S,2S)-2-hydroxycyclohexyl)-1H-pyrrolo[3,2-b]pyridine-3-carboxamide] | > 10 | > 10 | > 10 | [0.09 ± 0.06] | [0.34 ± 0.06]*** |  | 6.5 | > 10 |  | [0.00 ± 0.07]
Cc1ccnc2c(C(=O)N[C@H]3CCCC[C@@H]3O)cn(Cc3ccc(F)cc3)c12 [Example 10, 1-(4-Fluorobenzyl)-N-((1S,2S)-2-hydroxycyclohexyl)-7-methyl-1H-pyrrolo[3,2-b]pyridine-3-carboxamide] | > 10 | > 10 | > 10 | [0.18 ± 0.09] | [0.30 ± 0.08]** |  | 7.7 | > 10 |  | [0.18 ± 0.10]
Cc1ccnc2c(C(=O)N[C@H]3CCCC[C@@H]3O)cn(Cc3cccc(F)c3F)c12 [Example 11, 1-(2,3-Difluorobenzyl)-N-((1S,2S)-2-hydroxycyclohexyl)-7-methyl-1H-pyrrolo[3,2-b]pyridine-3-carboxamide] | > 10 | > 10 | > 10 |  | [0.24 ± 0.06] | [0.24 ± 0.07] | 6.9 | > 10 | [0.31 ± 0.06]** | 
COc1ccc(Cn2cc(C(=O)N[C@H]3CCCC[C@@H]3O)c3nccc(C)c32)cc1 [Example 12, N-((1S,2S)-2-Hydroxycyclohexyl)-1-(4-methoxybenzyl)-7-methyl-1H-pyrrolo[3,2-b]pyridine-3-carboxamide] | > 10 | > 10 | > 10 |  | [0.13 ± 0.06] | [0.30 ± 0.05]*** | 7.7 | > 10 | [0.33 ± 0.06]*** | 
COc1ccc(Cn2cc(C(=O)N[C@H]3CCCC[C@@H]3O)c3nccc(C)c32)cc1F [Example 13, 1-(3-Fluoro-4-methoxybenzyl)-N-((1S,2S)-2-hydroxycyclohexyl)-7-methyl-1H-pyrrolo[3,2-b]pyridine-3-carboxamide] | > 10 | > 10 | > 10 |  | [0.09 ± 0.05] | [0.13 ± 0.07] | 7.9 | > 10 | [0.25 ± 0.09]* | 
